Read-outs that look alike come from different tables or passages of the source.
Tests used:
[1] = system: rabbit aortal rings preconcentrated with phenylephrine; experiment: Vasorelaxant action in vitro; assay type: cell-based; conditions: Oryctolagus cuniculus, read-out: IC50 [μM] vasorelaxant action
Experimental: (§1) To determine the cardiovascular action, the following investigations were carried out: In in vitro investigations on the isolated and on cells of vascular origin, the effect on guanylate cyclase-dependent cGMP formation was tested with and without NO donor. The anti-aggregatory properties were shown on human platelets stimulated with collagen. The vasorelaxant action was determined in rabbit aortal rings preconcentrated with phenylephrine. The hypotensive action was investigated in anaesthetized and awake rats.
Rabbits are anaesthetized by a blow to the neck and exanguinated. The aorta is removed, freed from adhering tissue, divided into 1.5 mm wide rings and individually transferred under a pretension into 5 ml organ baths containing a warm, carbogen-aerated Krebs-Henseleit solution at 37° C. of the following composition (mM): NaCl: 119; KCl: 4.8; CaCl2×2H2O: 1; MgSO4×7H2O; 1.4; KH2PO4: 1.2; NaHCO3: 25; glucose: 10. The contractility is detected using Statham UC2 cells, amplified and digitalized by means of A/D converters (DAS-1802 HC, Keithley Instruments Munich), and recorded in parallel on linear recorders. To produce a contraction, phenylephrin is added to the bath cumulatively in increasing concentration. […]

[2] = system: human platelets stimulated with collagen; experiment: Inhibition of platelet aggregation in vitro; assay type: cell-based; conditions: 10 min, collagen-induced aggregation, 10 min incubation at 37° C.
Experimental: as §1
To determine the platelet-aggregation, blood from healthy volunteers of both sexes was used. As an anticoagulant, 9 parts of blood were admixed to one part of 3.8% strength sodium citrate solution. The blood was centrifuged at 900 rpm for 20 min. The pH of the platelet-rich plasma obtained was adjusted to pH 6.5 using ACD solution (sodium citrate/citric acid/glucose). The platelets were subsequently centrifuged off and resuspended in buffer and once more centrifuged off. The platelet pellet was suspended in buffer and mixed with an additional 2 mmol/l of CaCl2.
To measure the aggregation, aliquots of the platelet suspension were incubated with the substance to be tested at 37° C. for 10 min.

[3] = system: soluble guanylate cyclase; experiment: Stimulation of soluble guanylate cyclase in primary endothelial cells; assay type: cell-based, pig; conditions: for Increase in the cGMP concentration (%): test substances final concentration 1 μM, 10 minutes, primary endothelial cells from pig aortas
Experimental: Primary endothelial cells were isolated from pig aortas by treatment with collagenase soln. The cells were then cultured in culture medium at 37 °C/5% CO2 until confluence was reached. For the investigations, the cells were passaged, inoculated into 24-well cell culture plates and subcultured until reaching confluence (˜2×10^5 cells/well). For the stimulation of endothelial guanylate cyclase, the culture medium was aspirated and the cells were washed once with Ringer solution. After removing the Ringer solution, the cells were incubated for 10 minutes at 37° C./5% CO2 in stimulation buffer with or without NO donor (sodium nitroprusside, SNP or DEA/NO 1 μM). […] After the incubation time had ended, the buffer solution was aspirated and cold buffer at 4° C. was added to the cells. The cells were then lysed at −20° C. for 16 hours. The supernatants containing the intracellular cGMP were then removed and the cGMP concentration was determined by means of the cGMP-SPA system (Amersham Buchler, Brunswick).

[4] = system: anaesthetized rats; experiment: Blood pressure measurements in anaesthetized rats; assay type: in vivo, rat
Experimental: Male Wister rats having a bodyweight of 300-350 g are anaesthetized with Thiopental (100 mg/kg i.p.). After tracheotomy, a catheter is inserted into the femoral artery for blood pressure measurement. The substances to be tested are administered orally in Transcutol, Cremophor EL, H2O (10%/20%/70%) in a volume of 1 ml/kg.

SMILES: Nc1nc(-c2nn(Cc3ccccc3F)c3ncccc23)nc(N)c1N1CCOCC1 [Example 16, 3-(4,6-Diamino-5-N-morpholinopyrimidin-2-yl)-1-(2-fluorobenzyl)-1H-pyrazolo[3,4-b]pyridine]
- IC50 [1]: 0.2 µM
- IC50 [2]: 0.06 µM
- cGMP (pmol/well) ([3]; Ex. 16 0.1 μM): 5.1 pmol/well
- cGMP (pmol/well) ([3]; Ex. 16 0.3 μM): 13.2 pmol/well
- cGMP (pmol/well) ([3]; Ex. 16 1.0 μM): 20.8 pmol/well
- cGMP (pmol/well) ([3]; Ex. 16 3.0 μM): 34.5 pmol/well
- cGMP (pmol/well) ([3]; Ex. 16 10 μM): 47.7 pmol/well
- max. reduction in blood pressure (mm Hg) ([4]; 0.3 mg/kg p.o.): 21 mm Hg
- max. reduction in blood pressure (mm Hg) ([4]; 1.0 mg/kg p.o.): 35 mm Hg

SMILES: Nc1nc(-c2nn(Cc3ccccc3F)c3ncccc23)ncc1CC(F)(F)F [Example 8]
- melting point: 181 °C

SMILES: CS(=O)(=O)c1cnc(-c2nn(Cc3ccccc3F)c3ncccc23)nc1N [Example 1, 3-(4-Amino-5-methylsulphonylpyrimidin-2-yl)-1-(2-fluorobenzyl)-1H-pyrazolo[3,4-b]pyridine]
- IC50 ([1]; rabbit aorta rings, phenylephrin contraction reduced by 50%): 0.23 µM
- Increase in the cGMP concentration (%) [3]: >1000%

SMILES: Cc1ccc(-c2nc(-c3nn(Cc4ccccc4F)c4ncccc34)ncc2C#N)cc1 [Example 14, 3-[5-Cyano-4-(4-methylphenyl)pyrimidin-2-yl]-1-(2-fluorobenzyl)-1H-pyrazolo[3,4-b]pyridine]
- Increase in the cGMP concentration (%) [3]: >1000%

SMILES: NC(=O)c1cnc(-c2nn(Cc3ccccc3F)c3ncccc23)nc1N [Example 6]
- melting point: 215 °C
- Increase in the cGMP concentration (%) [3]: 600%
